Measured values reported in patent US20060004087A1, “Tetracyclic compounds as estrogen ligands” (Wyeth, priority 2004, published 2006).

Tests used:
[1] = biological target: T1, human ERα (Homo sapiens, UniProt P03372); experiment: Competition with [3H]-17β-estradiol for ERα ligand binding domain; conditions: E. coli lysate expressing ER ligand binding domains (D, E, & F); 2 nM [3H]-17β-estradiol; 5-15 hours at room temperature
T1 construct: made in house; host or cells: E. coli (crude lysate)
T1 sequence (P03372 311-547 limits assumed): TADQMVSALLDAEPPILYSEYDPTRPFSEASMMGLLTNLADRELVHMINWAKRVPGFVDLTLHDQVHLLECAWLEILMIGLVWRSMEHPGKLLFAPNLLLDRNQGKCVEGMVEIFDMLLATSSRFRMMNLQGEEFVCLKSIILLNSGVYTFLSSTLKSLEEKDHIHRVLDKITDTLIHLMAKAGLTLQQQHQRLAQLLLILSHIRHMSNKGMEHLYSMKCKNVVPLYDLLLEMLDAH
Method: (§1) This test procedure provides the methodology for one to determine whether a particular compound binds to the ER (and is therefore, “estrogenic”) and whether there is selectivity for ERα or ERβ. […] The procedure used is described briefly below. A crude lysate of E. coli expressing the ER ligand binding domains (D, E, & F) of human ERα or ERβ was prepared. Both ERs and compounds were diluted in 1× Dulbecco's Phosphate Buffered Saline (DPBS) supplemented with 1 mM EDTA. […] After between 5 and 15 hours at room temperature, the plates were washed with DPBS/1 mM EDTA and bound radioactivity determined by liquid scintillation counting.

[2] = biological target: T2, human ERβ (Homo sapiens, UniProt Q92731); experiment: Competition with [3H]-17β-estradiol for ERβ ligand binding domain; conditions: E. coli lysate expressing ER ligand binding domains (D, E, & F); 2 nM [3H]-17β-estradiol; 5-15 hours at room temperature
T2 construct: made in house; host or cells: E. coli (crude lysate)
Method: as §1

T2 sequence (Q92731 264-498 limits assumed): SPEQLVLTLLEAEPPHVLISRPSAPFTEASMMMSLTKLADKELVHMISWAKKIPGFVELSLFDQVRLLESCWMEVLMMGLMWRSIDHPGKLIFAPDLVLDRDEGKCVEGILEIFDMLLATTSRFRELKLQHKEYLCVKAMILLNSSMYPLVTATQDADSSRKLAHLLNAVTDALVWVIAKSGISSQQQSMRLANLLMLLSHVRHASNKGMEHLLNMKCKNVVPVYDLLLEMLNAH

Molecule | IC50 [1] | IC50 [2] | melting point
Oc1ccc2c(ccc3c4ccc(O)cc4oc23)c1 [Example 2, BENZO[B]NAPHTHO[2,1-D]FURAN-3,9-DIOL] | 12 nM | 1 nM | 
2,9-DIHYDROXY-5,6-DIHYDRO-BENZO[B]NAPHTHO[2,1-D]FURAN-10-BENZONITRILE [Example 12] | 2790 nM | 757 nM | 
N#Cc1c(O)ccc2c1oc1c3ccc(O)cc3ccc21 [Example 7, 3,9-DIHYDROXY-BENZO[B]NAPHTHO[2,1-D]FURAN-10-CARBONITRILE] | 55 nM | 3 nM | > 300 °C
N#Cc1cc(O)cc2c3c(oc12)-c1ccc(O)cc1CCC3 [Example 5, 3,9-DIHYDROXY-6,7-DIHYDRO-5H-12-OXA-DIBENZO[A,E]AZULEN-11-CARBONITRILE] | 1500 nM | 17 nM | 
N#Cc1c(O)ccc2c3c(oc12)-c1ccc(O)cc1CC3 [Example 6, 3,9-DIHYDROXY-5,6-DIHYDRO-BENZO[B]NAPHTHO[2,1-D]FURAN-10-CARBONITRILE] | 82 nM | 5 nM | > 300 °C
Oc1ccc2c(c1)CCc1c-2oc2cc(O)ccc12 [Example 1, 5,6-DIHYDRO-BENZO[B]NAPHTHO[2,1-D]FURAN-3,9-DIOL] | 18 nM | 3 nM | 
N#Cc1cc(O)cc2c3c(oc12)-c1ccc(O)cc1CC3 [Example 4, 3,8-DIHYDROXY-5,6-DIHYDRO-BENZO[B]NAPHTHO[2,1-D]FURAN-10-CARBONITRILE] | 150 nM | 1.2 nM | 355 to 358 °C
N#Cc1cc(O)cc2c3c(oc12)-c1ccc(O)cc1OC3 [Example 10, 3,8-DIHYDROXY-6H-BENZO[4,5]FURO[3,2-C]CHROMENE-10-CARBONITRILE] | 159 nM | 2 nM | 
Oc1ccc2c(c1)OCc1c-2oc2c(Br)cc(O)cc12 [Example 11, 10-BROMO-6H-BENZO[4,5]FURO[3,2-C]CHROMENE-3,8-DIOL] | 42 nM | 1 nM | 
Oc1ccc2c(c1)OCc1c-2oc2ccc(O)cc12 [Example 9, 6H-BENZO[4,5]FURO[3,2-C]CHROMEN-3,8-DIOL] | 129 nM | 4 nM | 
Oc1ccc2c(c1)oc1c3ccc(O)cc3c(Br)cc21 [Example 3, 5-BROMO-BENZO[B]NAPHTHO[2,1-D]FURAN-3,9-DIOL] | 70 nM | 12 nM | 
N#Cc1c(O)ccc2c1oc1c3cc(O)ccc3ccc21 [Example 13, 2,9-DIHYDROXY-BENZO[B]NAPHTHO[2,1-D]FURAN-10-CARBONITRILE] |  |  | 291 to 295 °C
